Measurements taken from patent publication US8961930B2, “Isatin derivatives for use as in vivo imaging agents” (Imperial Innovations Limited, priority 2008, dated 2015).
Several values for one entry are separate records, joined by “and”; a condition that tells them apart may be missing. Equal entries are not always repeated.

What was measured:
[1] = In vivo metabolism studies, radio-HPLC of plasma, liver and urine; parameters: species or system C3H/hej mice; conditions: for Recovery (plasma): extraction efficiency; for Parent (liver) / Recovery (liver): individual results from two samples
Procedure: [^18F]11 was injected intravenously into tumor-bearing mice and its tissue distribution was measured in selected tissues at 2, 15 and 60 min after injection. […] Furthermore, the in vivo metabolic stability of the radiotracer was determined from plasma and liver samples and, for [^18F]11, in urine samples.
In vivo metabolism studies were also performed in C3H/hej mice. […] Plasma, liver and urine samples were snap-frozen in liquid nitrogen and kept in pre-weighed scintillation counting tubes on dry ice prior to analysis.
Immediately prior to extraction the samples were thawed and placed on ice. For extraction, ice cold acetonitrile (1.5 mL) was added to plasma (0.2 mL); S9 incubation samples (3 mL) containing acetonitrile were also analysed. Each mixture was centrifuged (15493×g, 4° C., 3 min) and the resulting supernatant was evaporated to dryness under vacuum at 40° C. using a rotary evaporator. Liver samples were homogenized with ice cold acetonitrile (1.5 mL) using an IKA Ultra-Turrax T-25 homogeniser prior to centrifugation. The residues were then re-suspended in HPLC mobile phase (1.2 mL) and filtered through a Minisart hydrophilic syringe filter (0.2 μm) (Sartorius, Goettingen, Germany). Urine samples were diluted with HPLC mobile phase, filtered as above. The samples (1 mL) were then analyzed by radio-HPLC on an Agilent 1100 series HPLC system (Agilent Technologies, Stockport, UK) equipped with a γ-RAM Model 3 gamma-detector and the Laura software (IN/US Systems inc., Florida, USA).
The stationary phase comprised of a Waters μBondapak C18 reverse-phase column (300×7.8 mm). […] Furthermore, to assess the fraction of [^18F]9-derived radioactivity associated with the plasma and liver pellets after extraction versus that remaining in the HPLC injectate, the total volume of HPLC injectate was recorded and an aliquot (0.1 mL) removed for counting. The radioactivity in the 0.1 mL aliquot and the pellet were then analyzed by gamma counting (Packard Instruments).

PEO1 xenograft = test: In vivo [^18F]11 biodistribution and PET imaging, PEO1 xenograft; parameters: species or system mice; conditions: for 60 min biodistribution, Bone / 60 min biodistribution, Kidney / 60 min biodistribution, L. Intestine / 60 min biodistribution, Liver / 60 min biodistribution, Lung / 60 min biodistribution, Muscle / 60 min biodistribution, S. Intestine / 60 min biodistribution, Spleen / 60 min biodistribution, Tumour: PEO1
From the text: In vivo tumour models were established by subcutaneous injection of PEO1/4 (10×10^6 cells, with v/v matrigel, BD Biosciences, Oxford, UK), RIF-1 (5×10^5 cells) and LNM35 (1×10^6 cells) on the back of 6-8 weeks old female nu/nu-BALB/c or male C3H/hej mice (Harlan, Bicester, Oxfordshire, UK). Tumour growth was monitored every two days using electronic callipers, and tumour volume estimated using (π/6)×L×W×D (L=length, W=width and D=depth). All animal work was done by licensed investigators in accordance with the United Kingdom's “Guidance on the Operation of Animals (Scientific Procedures) Act 1986” (HMSO, London, United Kingdom, 1990) and in full compliance with government regulations and guidelines on the welfare of animals in experimental neoplasia.
For biodistribution studies, tumour-bearing mice were treated with 10 mg/kg cisplatin or vehicle for 24 h, anesthetized with isofluorane/O2/N2O and injected i.v. in the lateral tail vein with ˜100 μCi [^18F]11 for the indicated time. The different tissues were removed, weighted and placed in counting tubes for immediate Fluorine-18 radioactivity counting.
Tumour-bearing mice treated with Cisplatin (10 mg/kg for 24 h) or vehicle were scanned on a dedicated small animal PET scanner (quad-HIDAC; Oxford Positron Systems, Weston-on-the-Green, United Kingdom). Anesthetized animals were placed within a thermostatically controlled bed and positioned prone within the scanner. The bed was calibrated to provide a mouse rectal temperature of ˜37° C. A bolus injection of [^18F]11 (˜100 μCi) was given intravenously (i.v.) via the tail vein cannula and scanning commenced. Dynamic emission scans were acquired in list-mode format over 60 minutes. The acquired data were then sorted into 0.5-mm sinogram bins and 19 time frames (0.5×0.5×0.5 mm voxels; 4×15, 4×60, and 11×300 seconds) for image reconstruction, which was done by filtered back projection using a two-dimensional Hamming filter (cutoff 0.6). The image data-sets obtained were transferred to a SUN workstation (Ultra 10; SUN Microsystems, Santa Clara, Calif.) and visualized using the Analyze software (version 6.0; Biomedical Imaging Resource, Mayo Clinic, Rochester, Minn.). Cumulative images of the dynamic data composed of 0 to 1 minute after injection and 30 to 60 minutes after injection were used for visualization of radiotracer uptake and to define the regions of interest (ROI). The count densities were averaged for each ROI at each of the 19 time points to obtain a time versus radioactivity curve (TAC) for the ROIs. Tumour TAC was normalized to that of heart at each of the time points to obtain the normalized uptake value (NUV). The [^18F]9 data from […] were used as internal input function for normalizing tumour data. […] FRT is a useful variable in that it indicates the proportion of radiotracer delivered to the tumour that is retained. It therefore normalizes tumor [^18F]9 uptake to delivery.

O=C1C(=O)N(Cc2cn(CC[18F])nn2)c2ccc(S(=O)(=O)N3CCC[C@H]3COc3ccc(F)cc3F)cc21 [[^18F]11, (S)-1-((1-(2-Fluoroethyl)-1H-[1,2,3]-triazol-4-yl)methyl)-5-(2(2,4-difluorophenoxymethyl)-pyrrolidine-1-sulfonyl)isatin]
Recovery (plasma) ([1]; 2 min): 92.1 ± 3.4%
Parent (liver) ([1]; 2 min): 35.7% and 43.4%
Recovery (liver) ([1]; 2 min): 79.7% and 86.9%
Parent (plasma) ([1]; 2 min after i.v. injection, mice, radio-HPLC): 86.1 ± 3.7%
Recovery (plasma) ([1]; 15 min): 76.8 ± 5.2%
Parent (liver) ([1]; 15 min): 9.7% and 10.2%
Recovery (liver) ([1]; 15 min): 67.1% and 68.9%
Parent (plasma) ([1]; 15 min after i.v. injection, mice, radio-HPLC): 61.3 ± 5.9%
Recovery (plasma) ([1]; 60 min): 50.9 ± 3.7%
Parent (liver) ([1]; 60 min): 27.0% and 29.7%
Recovery (liver) ([1]; 60 min): 46.4% and 65.2%
Parent (plasma) ([1]; 60 min after i.v. injection, mice, radio-HPLC): 64.8 ± 7.0%
stability to metabolic degradation in vivo ([1]; radio-HPLC, plasma and liver, mice): relatively more stable to metabolic degradation than [^125I]14
60 min biodistribution, Bone (PEO1 xenograft; CDDP treated): 1.51 ± 1.02
60 min biodistribution, Bone (PEO1 xenograft; Control): 0.64 ± 0.09
PET image: uptake in the tumour (PEO1 xenograft; CDDP-treated mouse, PEO1 xenograft, 30-60 min): significant uptake
60 min biodistribution, Kidney (PEO1 xenograft; CDDP treated): 8.53 ± 3.64
60 min biodistribution, Kidney (PEO1 xenograft; Control): 6.59 ± 1.94
60 min biodistribution, L. Intestine (PEO1 xenograft; CDDP treated): 3.24 ± 1.81
60 min biodistribution, L. Intestine (PEO1 xenograft; Control): 1.81 ± 0.37
60 min biodistribution, Liver (PEO1 xenograft; CDDP treated): 8.20 ± 2.09
60 min biodistribution, Liver (PEO1 xenograft; Control): 9.98 ± 2.51
60 min biodistribution, Lung (PEO1 xenograft; CDDP treated): 4.90 ± 1.05
60 min biodistribution, Lung (PEO1 xenograft; Control): 4.25 ± 0.57
60 min biodistribution, Muscle (PEO1 xenograft; CDDP treated): 1.34 ± 0.28
60 min biodistribution, Muscle (PEO1 xenograft; Control): 0.98 ± 0.14
uptake in the tumour of CDDP treated vs control mice (PEO1 xenograft; PEO1 xenografts, 60 min): significant increased uptake
60 min biodistribution, S. Intestine (PEO1 xenograft; CDDP treated): 9.09 ± 5.82
60 min biodistribution, S. Intestine (PEO1 xenograft; Control): 4.27 ± 0.78
60 min biodistribution, Spleen (PEO1 xenograft; CDDP treated): 1.65 ± 0.22
60 min biodistribution, Spleen (PEO1 xenograft; Control): 1.19 ± 0.26
60 min biodistribution, Tumour (PEO1 xenograft; CDDP treated): 2.96 ± 1.25
60 min biodistribution, Tumour (PEO1 xenograft; Control): 1.37 ± 0.25
